Measured values from publication PMC10641811 (Journal of Medicinal Chemistry, 2023).
Values belong to the compound of their own block, whether it stands above or below them.

Key:
Shank3 PDZ domain = conditions: read-out: Shank3 IC50; cited from earlier work
ABCC2 = conditions: read-out: IC50 in at least one assay; cited from earlier work
MSN/CD44 = MSN/CD44 (Homo sapiens, UniProt P26038); assay type: binding; conditions: for activity in MSN/CD44 TR-FRET assay: in words
[1] = assay type: physicochemical; conditions: for discoloration when dissolved in DMSO: 5 days at ambient temperature; for discoloration of solutions prepared for NMR: DMSO-d6 or CDCl3, ambient temperature
WT PRC2-EZH2 = conditions: cited from earlier work
EZH2-EED interaction = conditions: cited from earlier work
H. pylori = conditions: cited from earlier work
IspF domain = conditions: cited from earlier work
[2] = system: diacylglycerol kinase α (DGKα); conditions: at 5 μM; cited from earlier work
ι-isozyme of DGK = conditions: at 5 μM; cited from earlier work
δ-isozyme of DGK = conditions: at 5 μM; cited from earlier work
κ-isozyme of DGK = conditions: at 5 μM; cited from earlier work
cell cycle progression = conditions: at ≥30 μM; cited from earlier work
NS5 = conditions: read-out: NS5 Ki; cited from earlier work

Sequence of MSN/CD44 (P26038 2-295): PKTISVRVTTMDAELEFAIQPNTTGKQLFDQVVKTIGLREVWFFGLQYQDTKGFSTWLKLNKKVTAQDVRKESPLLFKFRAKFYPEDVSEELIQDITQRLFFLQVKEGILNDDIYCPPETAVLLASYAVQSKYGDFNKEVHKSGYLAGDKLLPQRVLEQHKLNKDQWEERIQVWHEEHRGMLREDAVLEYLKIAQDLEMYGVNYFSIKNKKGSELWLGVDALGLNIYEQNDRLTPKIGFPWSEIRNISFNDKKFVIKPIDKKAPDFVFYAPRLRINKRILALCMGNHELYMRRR

SMILES: O=C(O)[C@@H]1Nc2c(O)cc(Cl)c([N+](=O)[O-])c2[C@@H]2C=CC[C@H]12 [Compound 34]
- IC50 (Shank3 PDZ domain): < 250 µM

SMILES: O=C(O)C1Nc2c(F)cccc2C2C=CCC12 (centres unmarked) [Compound 1e]
- IC50 (ABCC2): < 30 µM

- activity in MSN/CD44 TR-FRET assay (MSN/CD44): inactive
- discoloration when dissolved in DMSO [1]: No discoloration
SMILES: O=C(O)c1ccc2c(c1)C1CCCC1C(C(=O)O)N2 (centres unmarked) [Compound 3]

SMILES: O=C(O)c1cc(-c2ccccn2)c2c(c1)C1C=CCC1C(C(=O)O)N2 (centres unmarked) [WNN2074-A009]
- inhibition of WT PRC2-EZH2 (WT PRC2-EZH2): inhibited
- inhibition of the EZH2-EED interaction (EZH2-EED interaction): weak

SMILES: O=C(O)C1Nc2ccc(Oc3ccccc3)cc2C2C=CCC12 (centres unmarked) [Compound 27]
- inhibition of H. pylori growth (H. pylori): only a weak inhibitor
- inhibitory effect in IspF domain assay (IspF domain): did not show an inhibitory effect

SMILES: CC(=O)c1ccc2c(c1)C1C=CCC1C(C(=O)O)N2 (centres unmarked) [CU-4]
- inhibition of α-isozyme of DGK [2]: strongly inhibit
- inhibition of ι-isozyme of DGK (ι-isozyme of DGK): strongly inhibit
- inhibition of δ-isozyme of DGK (δ-isozyme of DGK): strongly inhibit
- inhibition of κ-isozyme of DGK (κ-isozyme of DGK): strongly inhibit

- activity in MSN/CD44 TR-FRET assay (MSN/CD44): inactive
- discoloration when dissolved in DMSO [1]: No discoloration
SMILES: CCOC(=O)c1ccc2c(c1)C1CCCC1C(C(=O)OCC)N2 (centres unmarked) [Compound 2]

- Hill coefficient (MSN/CD44; MSN/CD44 TR-FRET dose–response curve): 3.4
- discoloration of solution prepared for biological evaluation ([1]; DMSO (10 mM)): same discoloration
- discoloration of solutions prepared for NMR ([1]; 72 h): Discoloration
SMILES: O=C(O)c1ccc2c(c1)C1C=CCC1C(C(=O)O)N2 (centres unmarked) [Compound 5661118]
- cell cycle arrest (cell cycle progression): failed to elicit cell cycle arrest

- 1H NMR analysis of samples kept in CDCl3 ([1]; CDCl3, 120 h in light): no significant changes in the spectra
- stability in solution kept in the dark ([1]; DMSO-d6, dark, 72 h, 5 mg): remained a clear solution
- stability in solution kept in the light ([1]; DMSO-d6, light, 72 h, 25 mg and 5 mg): decomposed and changed color (purple)
- discoloration of solutions prepared for NMR ([1]; 72 h): Discoloration
SMILES: CCOC(=O)c1ccc2c(c1)C1C=CCC1C(C(=O)OCC)N2 (centres unmarked) [Compound 1, Diethyl 3a,4,5,9b-tetrahydro-3H-cyclopenta[c]quinoline-4,8-dicarboxylate]

SMILES: O=C(O)C1Nc2c(I)cccc2C2C=CCC12 (centres unmarked) [Compound 5660163]
- Ki (NS5): < 10 µM
